In patent publication US20250084074A1, “SUBSTITUTED HETEROCYCLES AS HSET INHIBITORS” (MERCK PATENT GMBH, priority 2022, published 2025):
Where a name gives a salt, the structure may show the parent alone.

Molecular target: HSET full length protein (Homo sapiens (Human), UniProt Q9BW19)
Assay: HSET ADP-Glo Assay S - 3 μM ATP
Type: biochemical
Settings: 5 nM HSET, 70 μg/mL microtubule, 80 min at rt, read-out: COMBINED HSET ADP GLO IC50
Method: Example 281: Testing compounds of the present invention for inhibitory activities against HSET—HSET ADP-Glo Assay S—3 μM ATP
Reagents: (+4° C. Storage) • Paclitaxel Prod.No.TXD.01 2 mM in DMSO (from Universal Biologicals Cambridge). • Tubulin Protein (Pre-formed Microtubules): Bovine Brain Prod.No.MT001-XL Lot.025 10 mg/mL (from Universal Biologicals Cambridge).
Reagents: (−80° C. Storage) • MT001-XL—Tubulin Protein (Pre-formed Microtubules): Bovine Brain—reconstituted in buffer—15 mM PIPES pH7, 1 mM MgCl2, 20 μM paclitaxel (aliquots at 10 mg/mL) from Universal Biologicals Cambridge. • HSET full length protein—Current batch is FL HSET Prep1 (SEQ-000096_002-01_01) • Buffer is 20 mM Hepes pH 7.5, 200 mM NaCl, 2 mM TCEP, 5% glycerol (5 μL aliquots at 10.2 μM)
Reagents: (−20° C. Storage) • ADP-Glo Kinase Assay kit (Promega Prod.No.V9102) 10,000 assay points • ADP-Glo reagent (50 mL), Kinase Detection Reagent (100 mL), and Ultrapure ATP (10 mM) aliquoted
Buffer Stocks (filtered and stored at rt for up to 1 month) • HEPES acid, 4-(2-Hydroxyethyl)piperazine-1-ethanesulfonic acid MW:238, 238.3 mg/mL=1 M • 7149 mg/30 mL=1M (pH to 6.8 with 5 M NaOH) • PIPES, 1,4-Piperazinediethanesulfonic acid MW: 302.4, 30.24 mg/mL=100 mM; 907.2 mg/30 mL=100 mM (pH to 7 with 5 M NaOH, white cloudy suspension until the pH changes) • EGTA, Ethylene glycol-bis(2-aminoethylether)-N,N,N′,N′-tetraacetic acid MW: 380.35, 38.035 mg/mL=100 mM • 1901.75 mg/50 mL=100 mM (pH to ˜7 with 5 M NaOH)—takes a long time to get into solution and for pH to stabilize • Triton-X-100, MW: 625, 62.5 mg/mL=100 mM (6.25% w/v) (viscous, pipette Triton X-100 with a Gilson using a trimmed pipette tip)
ECHO Protocol • Create an ECHO intermediate plate by adding 24.5 μL DMSO to columns 1 & 2, and 40 μL DMSO to columns 23 & 24 of an ECHO 384PP plate • Add 100 nL of compound/DMSO per well in 384-well Proxi-Plate Plus (white) —Perkin Elmer Cat #6008289 using ECHO dose response protocol 100 nL normal to proxi_8pt_200 uM.
Assay buffer (Keep on ice): HEPES pH 6.8, MgCl2, EGTA, Triton X-100, DTT, HPLC H2O Microtubule Working Solution (3.2): • 1 ml PM buffer: PIPES pH 7.0, MgCl2, HPLC H2O, Paclitaxel, mix well, store at rt • Then add 26.4 μL of 10 mg/ml microtubules to 724 μL of the above PM buffer to make 750 μL of microtubule working solution @350 μg/mL microtubules (store at rt)
Stock HSET enzyme solution (3.1)—keep on ice • Add 1.33 μL 10.2 μM HSET Prepi (SEQ-000096_002-01_01) to 1358 μL assay buffer to make a 10 nM stock for a 5 nM final assay concentration (1/1020 dilution).
HSET/Microtubule working solution (3.3) • Mix solutions 3.1 and 3.2 in the ratio of 2.5:1 (1214.3 μL 3.1+485.7 μL 3.2) keep at rt for 15 min • 3.2 is diluted 3.5-fold, 3.1 is diluted 1.4-fold BLANK solution is 357 μL 2XAB+143 μL microtubule working solution 3.2. (Same proportions as HSET/Microtubule working solution (3.3))
ATP Working solution is 1 μL 10 mM UltraPure ATP (Promega kit)+999 μL ddH20 gives 10 μM ATP for a 3 μM final assay concentration, stored on ice.
Assay procedure in PROXIPLATE 384 PLUS WHITE (Perkin Elmer) plates (Remove 2.4 mL ADP Glo and 4.5 mL Kinase detection reagent from freezer to warm up to rt) • Add 3.5 μL BLANK solution to assay plate (column 12) • Add 3.5 μL HSET/Microtubule solution (3.3) (columns 1-11 & 13-24) • Centrifuge at 1000 rpm for 1 min • (pre-incubate enzyme and compound for 10 min)
Add 1.5 μL of 10 μM ATP to start reaction gives a final [HSET] of 5 nM, [ATP] of 3 μM and [microtubule] of 70 μg/mL, centrifuge at 1000 rpm for 1 min and incubated at rt for 80 min.
After the 80-minute incubation, stop reaction by adding 5 μL ADP-Glo reagent to all wells. Centrifuge for 1 min at 1000 rpm, leave for 40 min at rt.
In the dark/away from direct light, add 10 μL Kinase Detection Reagent (KDR) to all wells, Seal plate with a Topseal (Perkin Elmer Cat #6050185) and centrifuge as above, leave for 40 min at rt covered in foil. […]

HSET full length protein, sequence (Q9BW19 whole entry): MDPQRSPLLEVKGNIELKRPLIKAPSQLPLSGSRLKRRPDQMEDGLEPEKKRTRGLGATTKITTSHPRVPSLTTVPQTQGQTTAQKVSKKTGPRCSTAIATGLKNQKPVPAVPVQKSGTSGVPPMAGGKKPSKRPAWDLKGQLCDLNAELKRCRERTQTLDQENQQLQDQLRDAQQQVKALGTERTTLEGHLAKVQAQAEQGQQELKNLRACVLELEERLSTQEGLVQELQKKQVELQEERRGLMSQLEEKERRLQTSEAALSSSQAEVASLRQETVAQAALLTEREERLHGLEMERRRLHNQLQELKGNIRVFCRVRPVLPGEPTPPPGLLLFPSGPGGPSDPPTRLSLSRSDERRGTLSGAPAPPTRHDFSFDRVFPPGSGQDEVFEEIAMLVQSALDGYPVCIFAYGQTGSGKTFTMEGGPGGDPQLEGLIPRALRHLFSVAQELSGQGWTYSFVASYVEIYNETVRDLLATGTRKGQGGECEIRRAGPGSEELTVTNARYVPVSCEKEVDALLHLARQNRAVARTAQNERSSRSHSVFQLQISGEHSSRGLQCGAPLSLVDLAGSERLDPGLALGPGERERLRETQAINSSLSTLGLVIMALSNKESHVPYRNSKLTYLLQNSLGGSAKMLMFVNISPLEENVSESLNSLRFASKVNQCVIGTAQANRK

Row | SMILES | IC50
1 | COC(=O)c1sc(NC(=O)CCNc2nccc3ccc(-c4noc(C)n4)cc23)nc1C [Example 46, Methyl 4-methyl-2-[3-[[7-(5-methyl-1,2,4-oxadiazol-3-yl)-1-isoquinolyl]amino]propanoylamino]thiazole-5-carboxylate] | 37 nM
2 | Cc1nc(-c2ccc3ncnc(NCCC(=O)Nc4nc(C)c(C(C)(C)C)s4)c3c2)no1 [Example 47, N-(5-tert-butyl-4-methyl-thiazol-2-yl)-3-[[6-(5-methyl-1,2,4-oxadiazol-3-yl)quinazolin-4-yl]amino]propanamide formate] | 147 nM
3 | Cc1nc(-c2ccc3ncnc(N[C@H]4C[C@@H](C(=O)N(C)c5nc(C)c(C(=O)OC(C)(C)C)s5)C4)c3c2)no1 [Example 49, tert-Butyl 4-methyl-2-((1 s,3s)-N-methyl-3-((6-(5-methyl-1,2,4-oxadiazol-3-yl)quinazolin-4-yl)amino)cyclobutane-1-carboxamido)thiazole-5-carboxylate formate] | 59 nM
4 | CCCOC(=O)c1sc(NC(=O)CCNc2nccc3ccc(-c4noc(C)n4)cc23)nc1C [Example 54, Propyl 4-methyl-2-(3-((7-(5-methyl-1,2,4-oxadiazol-3-yl)isoquinolin-1-yl)amino)propanamido)thiazole-5-carboxylate] | 3 nM
5 | Cc1nc(-c2ccc3ccnc(NCCC(=O)Nc4ncc(C#N)s4)c3c2)no1 [Example 55] | 1130 nM
6 | Cc1nc(-c2ccc3ccnc(NCCC(=O)Nc4cc(C(F)(F)F)n(C)n4)c3c2)no1 [Example 56, 3-((7-(5-methyl-1,2,4-oxadiazol-3-yl)isoquinolin-1-yl)amino)-N-(1-methyl-5-(trifluoromethyl)-1 H-pyrazol-3-yl)propenamide] | 1260 nM
7 | CCOC(=O)c1cnc(NC(=O)CCNC(=O)c2cccc(-c3noc(C)n3)c2)s1 [Example 61, Ethyl 2-(3-(3-(5-methyl-1,2,4-oxadiazol-3-yl)benzamido)propanamido)-thiazole-5-carboxylate] | 819 nM
8 | CCCOC(=O)c1sc(NC(=O)CCNC(=O)c2cccc(-c3noc(C)n3)c2)nc1C [Example 63, Propyl 4-methyl-2-(3-(3-(5-methyl-1,2,4-oxadiazol-3-yl)benzamido)propanamido)thiazole-5-carboxylate] | 11 nM
9 | Cc1nc(-c2cccc(C(=O)NCCC(=O)Nc3nc(C)c(C(=O)OC(C)C)s3)c2)no1 [Example 66, Isopropyl 4-methyl-2-(3-(3-(5-methyl-1,2,4-oxadiazol-3-yl)benzamido)propanamido)thiazole-5-carboxylate] | 40 nM
10 | COCCCCOC(=O)c1sc(NC(=O)CCNC(=O)c2cccc(-c3noc(C)n3)c2)nc1C [Example 69, 4-Methoxybutyl 4-methyl-2-(3-(3-(5-methyl-1,2,4-oxadiazol-3-yl)benzamido)propanamido)thiazole-5-carboxylate] | 50 nM
11 | CCOC(=O)c1cc(C(=O)NCCNc2nccc3ccc(-c4noc(C)n4)cc23)nn1C [Example 71, Ethyl 1-methyl-3-((2-((7-(5-methyl-1,2,4-oxadiazol-3-yl)isoquinolin-1-yl)amino)ethyl)carbamoyl)-1 H-pyrazole-5-carboxylate] | 10900 nM
12 | CCCOC(=O)c1cc(C(=O)NCCNc2nccc3ccc(-c4noc(C)n4)cc23)nn1C [Example 72, Propyl 1-methyl-3-((2-((7-(5-methyl-1,2,4-oxadiazol-3-yl)isoquinolin-1-yl)amino)ethyl)carbamoyl)-1 H-pyrazole-5-carboxylate] | 4310 nM

Second part, the compound after the results:

Row | IC50 | SMILES
13 | 68 nM | Cc1nc(-c2ccc3ncnc(N[C@H]4C[C@@H](C(=O)Nc5nc(C)c(C(=O)OC(C)(C)C)s5)C4)c3c2)no1 [Example 48, tert-Butyl 4-methyl-2-((1 s,3s)-3-((6-(5-methyl-1,2,4-oxadiazol-3-yl)quinazolin-4-yl)amino)cyclobutane-1-carboxamido)thiazole-5-carboxylate]
14 | 152 nM | Cc1nc(-c2ccc3ccnc(NCCC(=O)Nc4nc(C)c(C5(C(F)(F)F)CC5)s4)c3c2)no1 [Example 52]
15 | 166 nM | CCCCCc1cc(NC(=O)CCNc2nccc3ccc(-c4noc(C)n4)cc23)nn1C [Example 57, 3-((7-(5-methyl-1,2,4-oxadiazol-3-yl)isoquinolin-1-yl)amino)-N-(1-methyl-5-pentyl-1 H-pyrazol-3-yl)propanamide]
16 | 278 nM | Cc1nnn(-c2cccc(C(=O)NCCC(=O)Nc3nc(C)c(C(C)(C)C)s3)c2)n1 [Example 59, N-(3-((5-(tert-butyl)-4-methylthiazol-2-yl)amino)-3-oxopropyl)-3-(5-methyl-2H-tetrazol-2-yl)benzamide]
17 | 54 nM | CNCCC[C@@H](CC(=O)Nc1nc(C)c(C(C)(C)C)s1)NC(=O)c1cccc(-n2nnc(C)n2)c1 [Example 60, (S)-N-(1-((5-(tert-butyl)-4-methylthiazol-2-yl)amino)-6-(methylamino)-1-oxohexan-3-yl)-3-(5-methyl-2H-tetrazol-2-yl)benzamide]
18 | 1210 nM | COC(=O)c1sc(NC(=O)CCNC(=O)c2cccc(-c3noc(C)n3)c2)nc1C [Example 62, Methyl 4-methyl-2-(3-(3-(5-methyl-1,2,4-oxadiazol-3-yl)benzamido)propanamido)thiazole-5-carboxylate]
19 | 348 nM | CCCCc1sc(NC(=O)CCNC(=O)c2cccc(-c3noc(C)n3)c2)nc1C [Example 64, N-(3-((5-butyl-4-methylthiazol-2-yl)amino)-3-oxopropyl)-3-(5-methyl-1,2,4-oxadiazol-3-yl)benzamide]
20 | 4100 nM | CCOC(=O)c1sc(NC(=O)CC(C)(C)NC(=O)c2cccc(-c3noc(C)n3)c2)nc1C [Example 65, Ethyl 4-methyl-2-(3-methyl-3-(3-(5-methyl-1,2,4-oxadiazol-3-yl)benzamido)butanamido)thiazole-5-carboxylate]
21 | 419 nM | COCCOC(=O)c1sc(NC(=O)CCNC(=O)c2cccc(-c3noc(C)n3)c2)nc1C [Example 67, 2-Methoxyethyl 4-methyl-2-(3-(3-(5-methyl-1,2,4-oxadiazol-3-yl)benzamido)propanamido)thiazole-5-carboxylate]
22 | 33 nM | Cc1nc(-c2cccc(C(=O)NCCC(=O)Nc3nc(C)c(C(=O)OCC(C)C)s3)c2)no1 [Example 68, Isobutyl 4-methyl-2-(3-(3-(5-methyl-1,2,4-oxadiazol-3-yl)benzamido)propanamido)thiazole-5-carboxylate]
23 | 11 nM | CCCOC(=O)c1sc(C(=O)NCCNc2nccc3ccc(-c4noc(C)n4)cc23)nc1C [Example 70, Propyl 4-methyl-2-((2-((7-(5-methyl-1,2,4-oxadiazol-3-yl)isoquinolin-1-yl)amino)ethyl)carbamoyl)thiazole-5-carboxylate]
